Test results published in ChEMBL document CHEMBL4616625, “The Medicinal Chemistry in the Era of Machines and Automation: Recent Advances in Continuous Flow Technology” (J Med Chem, 2020).

What was measured:
[1] = target: T1, Alpha-1B adrenergic receptor (Homo sapiens, UniProt P35368); test: Inhibition of alpha1B adrenergic receptor (unknown origin)
T1 sequence (P35368 whole entry): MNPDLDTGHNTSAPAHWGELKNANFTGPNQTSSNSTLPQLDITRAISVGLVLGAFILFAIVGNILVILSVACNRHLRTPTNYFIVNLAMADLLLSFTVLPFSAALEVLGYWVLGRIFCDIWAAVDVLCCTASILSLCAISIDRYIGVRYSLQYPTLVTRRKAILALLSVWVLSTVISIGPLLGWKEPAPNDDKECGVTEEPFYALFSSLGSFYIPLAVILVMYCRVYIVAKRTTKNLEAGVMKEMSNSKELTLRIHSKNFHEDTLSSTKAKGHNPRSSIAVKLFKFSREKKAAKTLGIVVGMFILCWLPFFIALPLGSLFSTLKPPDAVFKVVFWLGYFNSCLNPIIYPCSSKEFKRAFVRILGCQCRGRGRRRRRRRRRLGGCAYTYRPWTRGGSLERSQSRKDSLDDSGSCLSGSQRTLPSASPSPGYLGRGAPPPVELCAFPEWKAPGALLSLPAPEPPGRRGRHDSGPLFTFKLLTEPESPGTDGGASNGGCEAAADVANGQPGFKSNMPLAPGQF

Albumin = Albumin (Homo sapiens, UniProt P02768); test: Binding affinity to albumin (unknown origin); assay type: ADME
Sequence of Albumin (P02768 whole entry): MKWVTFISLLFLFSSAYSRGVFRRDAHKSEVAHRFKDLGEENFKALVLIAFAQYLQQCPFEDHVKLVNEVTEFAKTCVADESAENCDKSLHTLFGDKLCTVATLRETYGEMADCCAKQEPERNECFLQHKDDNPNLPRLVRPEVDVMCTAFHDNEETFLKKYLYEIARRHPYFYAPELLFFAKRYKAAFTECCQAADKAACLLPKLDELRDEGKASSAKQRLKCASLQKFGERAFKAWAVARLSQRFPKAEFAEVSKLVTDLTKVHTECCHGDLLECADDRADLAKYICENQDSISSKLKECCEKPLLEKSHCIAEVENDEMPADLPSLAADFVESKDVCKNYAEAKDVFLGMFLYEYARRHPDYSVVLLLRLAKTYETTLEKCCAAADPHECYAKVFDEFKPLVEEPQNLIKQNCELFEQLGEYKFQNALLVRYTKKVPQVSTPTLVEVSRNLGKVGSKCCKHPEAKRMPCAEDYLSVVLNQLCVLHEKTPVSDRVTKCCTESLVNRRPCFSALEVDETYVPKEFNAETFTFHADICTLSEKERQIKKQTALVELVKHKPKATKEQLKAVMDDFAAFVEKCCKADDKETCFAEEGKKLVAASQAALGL

Structure (SMILES)	Ki [1]	Kd (Albumin)
COc1ccc(-c2nc3ccccn3c2NCCN2CCOCC2)c(OC)c1	2000 nM	–
CCCN(CCC)C(=O)Cc1c(-c2ccc(Cl)cc2)nc2ccc(Cl)cn12 [ALPIDEM]	–	2000 nM
Cc1ccc(-c2nc3ccc(C)cn3c2CC(=O)N(C)C)cc1 [ZOLPIDEM]	–	63000 nM
